Reference: the supplement of paper PMC13380429

Columns and labels:
Details in all cases: 72 h
[1] = system: Caco-2; experiment: cell viability relative to DMSO; higher = less toxic
[2] = system: Calu-3; experiment: as above
[3] = system: HepG2; experiment: as above
[4] = system: U2OS; experiment: as above
[5] = system: Vero E6; experiment: as above
[6] = system: Caco-2; experiment: relative viability EC50 (midpoint between 100% and the lowest measured viability); higher = less toxic
[7] = system: Calu-3; experiment: as above
[8] = system: HepG2; experiment: as above
[9] = system: U2OS; experiment: as above
[10] = system: Vero E6; experiment: as above
[11] = system: Caco-2; experiment: drug sensitivity score (DSS) for viability; higher = more toxic; extreme values may be limits of the assay
[12] = system: Calu-3; experiment: as above
[13] = system: HepG2; experiment: as above
[14] = system: U2OS; experiment: as above
[15] = system: Vero E6; experiment: as above

Row | Compound | cell viability ([1]; 1 nM) [%] | cell viability ([1]; 10 nM) [%] | cell viability ([1]; 100 nM) [%] | cell viability ([1]; 1000 nM) [%] | cell viability ([1]; 10000 nM) [%] | cell viability ([2]; 1 nM) [%] | cell viability ([2]; 10 nM) [%] | cell viability ([2]; 100 nM) [%] | cell viability ([2]; 1000 nM) [%] | cell viability ([2]; 10000 nM) [%] | cell viability ([3]; 1 nM) [%] | cell viability ([3]; 10 nM) [%] | cell viability ([3]; 100 nM) [%] | cell viability ([3]; 1000 nM) [%] | cell viability ([3]; 10000 nM) [%] | cell viability ([4]; 1 nM) [%] | cell viability ([4]; 10 nM) [%] | cell viability ([4]; 100 nM) [%] | cell viability ([4]; 1000 nM) [%] | cell viability ([4]; 10000 nM) [%] | cell viability ([5]; 1 nM) [%] | cell viability ([5]; 10 nM) [%] | cell viability ([5]; 100 nM) [%] | cell viability ([5]; 1000 nM) [%] | cell viability ([5]; 10000 nM) [%] | relative viability EC50 [6] [µM] | relative viability EC50 [7] [µM] | relative viability EC50 [8] [µM] | relative viability EC50 [9] [µM] | relative viability EC50 [10] [µM] | drug sensitivity score [11] | drug sensitivity score [12] | drug sensitivity score [13] | drug sensitivity score [14] | drug sensitivity score [15]
1 | CN[C@@H](C)C(=O)N[C@H](C(=O)N1CCC[C@H]1C(=O)Nc1sc(-c2ncco2)nc1-c1ccccc1)C1CCCCC1 [CUDC-427] | 98.1 | 101 | 98.5 | 109 | 99.7 | 96.6 | 107 | 86.5 | 102 | 85.6 | 111 | 91.5 | 96.3 | 90 | 95.2 | 98 | 99.9 | 99.2 | 108 | 92.7 | 94.2 | 96.6 | 105 | 105 | 111 | > 10 | > 10 | > 10 | > 10 | > 10 | 0 | 0.1 | 0 | 0 | 0
2 | COC(=O)c1ccccc1NC(=O)c1ccc(F)cc1 [EXO-1] | 99.5 | 93 | 100 | 103 | 100 | 97.9 | 98.1 | 99.6 | 95.6 | 96.5 | 95.6 | 99.9 | 91.8 | 94.7 | 111 | 98.7 | 91.8 | 98.3 | 95.7 | 98.8 | 95.2 | 94.6 | 91 | 93.6 | 99.5 | > 10 | > 10 | > 10 | > 10 | > 10 | 0 | 0 | 0 | 0 | 0
3 | O=C(N[C@@H]1Cc2ccccc2N(C[C@@H](O)CO)C1=O)c1cc2cc(Cl)sc2[nH]1 [GPi-688] | 101 | 98 | 96.9 | 94.2 | 92.9 | 102 | 99.3 | 99.9 | 94.1 | 87.8 | 96 | 104 | 98.1 | 104 | 100 | 98.4 | 102 | 95.2 | 96.8 | 94.7 | 99.9 | 102 | 104 | 100 | 90.5 | > 10 | > 10 | > 10 | > 10 | > 10 | 0 | 0.3 | 0 | 0 | 0
4 | CCCn1c(=O)c2[nH]c(-c3cnn(Cc4cccc(C(F)(F)F)c4)c3)nc2n(CC)c1=O [GS-6201] | 98.5 | 104 | 105 | 108 | 100 | 103 | 109 | 96.3 | 96.1 | 97.4 | 106 | 91.6 | 104 | 94.2 | 96.8 | 96.9 | 101 | 96.3 | 105 | 100 | 98.5 | 96.1 | 96.5 | 97.8 | 104 | > 10 | > 10 | > 10 | > 10 | > 10 | 0 | 0 | 0 | 0 | 0
5 | O=C(O)CNC(=O)c1c(O)c2ccccc2n(Cc2ccccc2)c1=O [IOX2] | 95.4 | 97.1 | 92 | 102 | 93.2 | 87 | 88 | 85.8 | 96 | 87.4 | 108 | 106 | 108 | 93.9 | 106 | 96.2 | 102 | 94.8 | 98.5 | 95.6 | 104 | 99.7 | 102 | 106 | 98.4 | > 10 | > 10 | > 10 | > 10 | > 10 | 0 | 0 | 0 | 0 | 0
6 | CCOc1ccc(Nc2nc(-c3c(C)nc4ccccn34)cs2)cc1 [JK-184] | 102 | 96.9 | 91.3 | 57.4 | 33.2 | 101 | 90.5 | 103 | 57.6 | 39.4 | 94.9 | 99.5 | 90.6 | 86.9 | 40.1 | 106 | 100 | 79.9 | 26.9 | 19.7 | 98.3 | 97.6 | 77.8 | 31.3 | 29.5 | 0.578 | 0.715 | 1.68 | 0.209 | 0.152 | 9.2 | 8.3 | 5.3 | 16 | 15.5
7 | O=C1Nc2ccccc2C12OCC1(CO2)COC2(OC1)C(=O)Nc1ccccc12 (stereo not given) [JW-67] | 87.2 | 92.5 | 91.8 | 93.2 | 88.1 | 90.8 | 92.1 | 103 | 87.2 | 85.3 | 97.1 | 98.6 | 93.6 | 98.4 | 105 | 97.6 | 97.5 | 102 | 94.6 | 92.5 | 88.4 | 103 | 91.2 | 90.5 | 86 | > 10 | > 10 | > 10 | > 10 | > 10 | 0 | 0.1 | 0 | 0 | 0.1
8 | CC(C)n1nc(-c2ccc3oc(N)nc3c2)c2c(N)ncnc21 [MLN0128] | 102 | 72 | 45.2 | 26.1 | 20.1 | 88.6 | 61.2 | 31.5 | 28.4 | 22.8 | 106 | 91.9 | 32.4 | 26.6 | 12.9 | 100 | 92.1 | 35 | 18.4 | 12 | 97.9 | 93.5 | 48.7 | 35.6 | 16.5 | 0.0309 | 0.0095 | 0.0449 | 0.049 | 0.0855 | 23.2 | 27.5 | 24.6 | 24.4 | 19.7
9 | OC[C@H]1O[C@@H](n2cnc3c(NC4CCCC4)ncnc32)[C@H](O)[C@@H]1O [N6-cyclopentyladenosine] | 92.8 | 99.7 | 109 | 104 | 116 | 108 | 96.6 | 94 | 102 | 100 | 112 | 95.6 | 99.1 | 92.7 | 100 | 97.7 | 98.8 | 98.2 | 102 | 112 | 92.4 | 91.4 | 92.2 | 93.9 | 102 | > 10 | > 10 | > 10 | > 10 | > 10 | 0 | 0 | 0 | 0 | 0
10 | COc1ccccc1N1CCN(CCCCN2C(=O)c3ccccc3C2=O)CC1 [NAN-190] | 99.7 | 85.8 | 99.2 | 86.6 | 94.8 | 95.5 | 94.3 | 107 | 101 | 102 | 91.6 | 108 | 94 | 109 | 103 | 103 | 100 | 101 | 94.7 | 101 | 99.4 | 94.5 | 91.5 | 94.3 | 103 | > 10 | > 10 | > 10 | > 10 | > 10 | 0 | 0 | 0 | 0 | 0
11 | COc1cc(C#N)ccc1S(=O)(=O)Nc1ccc2c(c1)cc(C)c(=O)n2C [NI-57] | 99.1 | 97.4 | 94.8 | 91.1 | 83.5 | 98.7 | 110 | 101 | 101 | 104 | 106 | 114 | 102 | 94.1 | 85.3 | 101 | 98.2 | 101 | 98.5 | 98.9 | 98.7 | 103 | 99.6 | 95.7 | 96 | > 10 | > 10 | > 10 | > 10 | > 10 | 0.6 | 0 | 0.7 | 0 | 0
